What was measured:
[1] = system: Human immunodeficiency virus 1; experiment: Antiviral activity against HIV1 TEKI; type: functional, organism-based; settings: Human immunodeficiency virus 1, TEKI
[2] = system: Human immunodeficiency virus 1; experiment: Antiviral activity against HIV1 NL4-3; type: functional, organism-based; settings: Human immunodeficiency virus 1, NL4-3
PBMC = experiment: Cytotoxicity against human PBMC; type: functional

IC50 [1] [µM]	IC50 [2] [µM]	SMILES	CC50 (PBMC) [µM]
3.52	3.11	Nc1ncnc2c1ncn2[C@H]1CN[C@@H](CO)C1	46.6
		Cc1cn([C@H]2C[C@H](N=[N+]=[N-])[C@@H](CO)O2)c(=O)[nH]c1=O [ZIDOVUDINE]	> 1

From ChEMBL document CHEMBL1146190, “Azadideoxyadenosine: synthesis, enzymology, and anti-HIV activity” (Bioorg Med Chem Lett, 2006)
